Assay in all cases: NCI anticancer screen, dose series, 48 h
The subject of experiment [1] is EKVX.
Experiment [2] concerns U-251.
Experiment [3] relates to HT-29.
Experiment [4] has as its system MOLT-4.
Experiment [5] concerns DU-145.
The test system of experiment [6] is 786-0.
In experiment [7] the test system is KM12.
In experiment [8] the test system is BT-549.
In experiment [9] the test system is SF-295.
Experiment [10] has as its system LOX IMVI.
For experiment [11], the system named is HCT-15.
The subject of experiment [12] is UO-31.
The test system of experiment [13] is UACC-257.
The test system of experiment [14] is NCI-H460.
Experiment [15] relates to M14.
For experiment [16], the system named is NCI-H522.
Experiment [17] concerns OVCAR-3.
The subject of experiment [18] is HOP-92.
Experiment [19] deals with Hs-578T.
The test system of experiment [20] is HL-60.

SMILES strings stand for the structures.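 Values below derive from 48-hour exposures of cells grown in 96-well plates, with endpoints linearly interpolated between the two concentrations bracketing the appropriate inhibition level. At the GI50, growth is halved.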 Calls of active or inactive are those of the source. No stated cut-off is given here; in the data, active = GI50 up to about 1.1 µM and inactive = higher. A value given as a limit tells only on which side of the number the result lay.

Regarding `c1ccc2sc(SCSc3nc4ccccc4s3)nc2c1`, the GI50 in experiment [1] was 50.1 µM (inactive); in experiment [2], 39.3 µM (inactive); in experiment [3] it was 72.1 µM (inactive); in experiment [4], 8.81 µM (inactive); in [5], > 100 µM (inactive); in experiment [6], 82.4 µM (inactive). Also, the GI50 in [7] is > 100 µM (inactive); in experiment [8], > 100 µM (inactive); in experiment [9], 43.3 µM (inactive); in experiment [10] it was 47.2 µM (inactive); in experiment [11] it was 20.6 µM; in experiment [12], 86.1 µM (inactive). Further, the GI50 is 28.5 µM (inactive) in [13]; 22.4 µM (inactive) in experiment [14]; > 100 µM (inactive) in experiment [15]; 57.8 µM (inactive) in experiment [16]; 92.7 µM (inactive) in experiment [17]; > 100 µM (inactive) in experiment [18]. For the same compound, the GI50 in [19] is > 100 µM (inactive).

Consider `CCOc1ccc2ccc3cccnc3c2n1`, for which the GI50 in experiment [1] is 36.5 µM (inactive); in [2], 48.4 µM (inactive); in [3] it was 34.1 µM (inactive); in experiment [5], > 100 µM (inactive); in experiment [6] it was 66.2 µM (inactive); in experiment [7], 45.4 µM (inactive). In addition, the GI50 in [8] was > 100 µM (inactive); in experiment [9], 39.3 µM (inactive); in experiment [10], 49.1 µM (inactive); in experiment [11], 54.3 µM; in experiment [12], 64 µM (inactive); in experiment [13], 26.9 µM (inactive). Further, the GI50 in experiment [14] was 36.3 µM (inactive); in experiment [15], 47.2 µM (inactive); in experiment [16], > 100 µM (inactive); in experiment [17] it was 21.9 µM (inactive); in experiment [20], 22.3 µM (inactive); in experiment [18], 44.7 µM (inactive). In addition, the GI50 in experiment [19] was > 100 µM (inactive).

Consider `N#CC1=C(N)OC2=C(CSc3ccccc32)C1c1ccc(Br)cc1` (configuration not stated), for which the GI50 was 2.81 µM (inactive) in experiment [1]; 4.65 µM (inactive) in experiment [2]; 4.59 µM (inactive) in experiment [3]; 2.84 µM (inactive) in [4]; 20 µM (inactive) in experiment [5]; 7.83 µM (inactive) in experiment [6]. Besides, the GI50 was 4.37 µM (inactive) in experiment [7]; 10.7 µM (inactive) in experiment [8]; 12.4 µM (inactive) in experiment [9]; 2.6 µM (inactive) in experiment [10]; 4.7 µM in experiment [11]; 11.5 µM (inactive) in experiment [12]. The GI50 in experiment [13] is 12.1 µM (inactive); in experiment [14] it was 12.1 µM (inactive); in [15], 9.27 µM (inactive); in experiment [17], 5.57 µM (inactive); in [20] it was 2.59 µM (inactive); in [18], 6.78 µM (inactive). In experiment [19], the GI50 was 28.1 µM (inactive).

As for `Cc1ccc(C(=O)/C=C2\Nc3ccccc3N=C2NC23CC4CC(CC(C4)C2)C3)cc1`, the GI50 is > 10 µM (inactive) in experiment [2]; > 10 µM (inactive) in experiment [3]; 7.8 µM (inactive) in experiment [4]; > 10 µM (inactive) in [5]; > 10 µM (inactive) in experiment [6]; > 10 µM (inactive) in experiment [7]. For the same compound, the GI50 in experiment [8] is > 10 µM (inactive); in [9] it was > 10 µM (inactive); in [10] it was > 10 µM (inactive); in [11], over 10 µM; in experiment [13] it was > 10 µM (inactive); in [15] it was > 10 µM (inactive). In addition, the GI50 in experiment [16], in experiment [17], in [20], in experiment [18] and in experiment [19] was > 10 µM (inactive) each time.

For the compound `CC1=C(C(=O)Nc2cccc3c2C(=O)NC3=O)CC(C(=O)Nc2cccc3c2C(=O)NC3=O)=C(C)N1`, the GI50 in experiment [1], in experiment [2], in experiment [4], in experiment [5], in experiment [6] and in [7] was > 100 µM (inactive) each time. The GI50 in experiment [8] is > 100 µM (inactive); in [9] it was > 100 µM (inactive); in experiment [10], > 100 µM (inactive); in experiment [11], over 100 µM; in [12], > 100 µM (inactive); in experiment [13], > 100 µM (inactive). Besides, the GI50 in experiment [14], in experiment [15], in experiment [16], in experiment [17], in [20] and in experiment [18] was > 100 µM (inactive) in each case. Further, the GI50 in experiment [19] was > 100 µM (inactive).

In the case of `c1ccc2c(c1)nc1ccccn12`, the GI50 in experiment [1], in [2], in experiment [3], in experiment [4], in [5] and in experiment [6] was > 100 µM (inactive) in each case. Also, the GI50 is > 100 µM (inactive) in experiment [7]; > 100 µM (inactive) in experiment [8]; > 100 µM (inactive) in experiment [9]; over 100 µM in experiment [11]; > 100 µM (inactive) in [12]; > 100 µM (inactive) in experiment [13]. Moreover, the GI50 was > 100 µM (inactive) in experiment [14]; > 100 µM (inactive) in [15]; > 100 µM (inactive) in [17]; > 100 µM (inactive) in experiment [20]; > 100 µM (inactive) in [18]; 33.6 µM (inactive) in experiment [19].

In the case of `CN(C)CCCCCNc1c2ccccc2nc2cccc([N+](=O)[O-])c12`, the GI50 in experiment [1] is 0.00402 µM (active); in experiment [2] it was 0.0011 µM (active); in [3], 0.0011 µM (active); in experiment [4] it was 0.000807 µM (active); in [5], 0.000404 µM (active); in [6] it was 0.00133 µM (active). The GI50 in experiment [7] was 0.00957 µM (active); in experiment [8] it was 0.000946 µM (active); in experiment [9], 0.00105 µM (active); in experiment [10] it was 0.00289 µM (active); in experiment [13], 0.00918 µM (active); in experiment [14] it was 0.000223 µM (active). In addition, the GI50 in [15] was 0.00146 µM (active); in experiment [17], 0.00146 µM (active); in experiment [20] it was 0.00143 µM (active); in experiment [18], 0.00329 µM (active); in experiment [19], 0.00197 µM (active).

As to `CCOC(=O)c1c2ccccc2n2c(=O)n(C)nnc12`, the GI50 in experiment [1] is 99.8 µM (inactive); in experiment [2] it was > 89.1 µM (inactive); in experiment [5] it was > 100 µM (inactive); in [6] it was 89.3 µM (inactive); in experiment [7], > 100 µM (inactive); in experiment [8], > 100 µM (inactive). The GI50 in experiment [9] is 40.1 µM (inactive); in experiment [10], > 100 µM (inactive); in experiment [11], over 100 µM; in experiment [12], > 100 µM (inactive); in experiment [13] it was > 100 µM (inactive); in [14], > 100 µM (inactive). Further, the GI50 in experiment [15] was > 100 µM (inactive); in [17], > 27.9 µM (inactive); in [20], 1.53 µM (inactive); in [18] it was > 100 µM (inactive); in [19], > 100 µM (inactive).

Consider `COC(=O)c1c(OC(C)=O)ccc2c1c1c(n2C)C(=O)c2ccccc2C1=O`, for which the GI50 was 28.8 µM (inactive) in [1]; 31.3 µM (inactive) in experiment [2]; 46.8 µM (inactive) in experiment [3]; 18.3 µM (inactive) in experiment [4]; 14.6 µM (inactive) in experiment [5]; 25.5 µM (inactive) in experiment [6]. For the same compound, the GI50 is 29.1 µM (inactive) in experiment [7]; 17 µM (inactive) in experiment [8]; 21.5 µM (inactive) in [9]; 24.8 µM in experiment [11]; 21 µM (inactive) in experiment [12]; 13.1 µM (inactive) in experiment [13]. Moreover, the GI50 in [14] is 22.4 µM (inactive); in [15], 35.2 µM (inactive); in [16], 21.7 µM (inactive); in experiment [17] it was 17.9 µM (inactive); in [20], 32.1 µM (inactive); in experiment [18], 1.34 µM (inactive). Also, the GI50 in [19] is 8.38 µM (inactive).

Take `O=C(Nn1c(-c2ccccc2)nc2ccccc2c1=O)c1ccccn1`: the GI50 was > 100 µM (inactive) in experiment [1]; 75.7 µM (inactive) in experiment [2]; 65.3 µM (inactive) in experiment [3]; > 100 µM (inactive) in experiment [4]; > 100 µM (inactive) in [5]; > 100 µM (inactive) in experiment [6]. For the same compound, the GI50 is 83.6 µM (inactive) in [7]; > 100 µM (inactive) in experiment [8]; 98.9 µM (inactive) in experiment [9]; > 100 µM (inactive) in experiment [10]; > 100 µM (inactive) in [12]; > 100 µM (inactive) in experiment [13]. Further, the GI50 is > 100 µM (inactive) in experiment [14]; > 100 µM (inactive) in [15]; 72.8 µM (inactive) in [16]; 79.3 µM (inactive) in experiment [17]; 71.4 µM (inactive) in [20]; 78 µM (inactive) in experiment [18]. In addition, the GI50 in experiment [19] was 27.5 µM (inactive).

For the compound `O=C(O)CN1C=C(C(=O)c2cc3ccccc3n2S(=O)(=O)c2ccccc2)CCC1`, the GI50 in [1] is 54.8 µM (inactive); in experiment [2], 76.7 µM (inactive); in experiment [3], 50 µM (inactive); in experiment [4] it was 38.5 µM (inactive); in [5], > 100 µM (inactive); in [6], 50.7 µM (inactive). For the same compound, the GI50 is 37.1 µM (inactive) in experiment [7]; 83.2 µM (inactive) in experiment [8]; 69.5 µM (inactive) in [9]; 64.9 µM (inactive) in [10]; 49.2 µM in experiment [11]; 30.4 µM (inactive) in experiment [12]. The GI50 is > 100 µM (inactive) in experiment [13]; 96.2 µM (inactive) in experiment [14]; 69.8 µM (inactive) in experiment [15]; 51.9 µM (inactive) in experiment [17]; 32.2 µM (inactive) in experiment [20]; 46.9 µM (inactive) in [18]. Further, in [19], the GI50 is 81.3 µM (inactive).

(Values after ChEMBL document CHEMBL1201862, “PubChem BioAssay data set” (2004).)
